Structures can show the parent of a compound that is named as a salt.
Assays:
Format in all cases: in vivo
[1] = test system: Bolshoye Yarovoye Artemia cysts (ARC BY 1706); assay: Post-diapause development of Bolshoye Yarovoye strain encysted Artemia embryos with NO donors; conditions: for hatching after 24 hours: 40 and 60 μM, overcome by 48 hr; for concentration at which NO donor was most effective on cyst development: Bolshoye Yarovoye cysts, FIG. 2A-F
Experimental: (§1) Encysted embryos (cysts) from a parthenogenetic strain of Artemia obtained in winter 2005-2006 in Bolshoye Yarovoye (Altay Region: 52° 51′64″ N-78° 37′32″ E), Russia (Artemia Reference Center (ARC) code number BY 1706), were stored in the dark at 4° C. in dry sealed bags. For the experiment, the cysts were grown at 26-28° C. with constant illumination in 25 ml of sea water under varying experimental conditions as detailed below.
To quantify larval (nauplii) emergence and hatching (FIG. 1) which served as measures of cyst development, 6 samples of 250 μl from each 50 ml tube were mixed individually with 250 μl of sea water and 2 drops of Lugol's solution (Van Stappen, G, 1996) prior to counting nauplii (N) and umbrella (U) with the aid of a dissecting microscope. […] The extent of development was determined as the percent of developed cysts which was calculated as either the number of hatched larvae, or the number of hatched and emerged larvae, obtained from 100 cysts, the latter represented by the sum of hatched nauplii (larvae), emerged larvae and undeveloped cysts containing embryos.
(§2) The hatching percentage (H %) was calculated according to: […]
(§3) The hatching percentage plus (H^+%) was calculated according to: […]
The percent of developed cysts was calculated as described above.

[2] = test system: eggs with diapaused embryos of Bombyx mori; assay: Termination of embryonic diapause in eggs dipped in NO donor or HCl; conditions: SpermineNONOate 1 mM 30 min dip; 20% HCl 5 min 48° C.
Experimental: All experiments were carried out on silkmoth strain Bombyx mori J106 (Lepidoptera: Bombycidae). Larvae were maintained on an artificial diet (Yakuruto Co.) under standard conditions of 25° C., 65% relevant humidity and 16 h light ([…] et al., 2003). Egg batches were collected from a continuous insect colony and used for the experiments. […] The latter treatment is the normally used procedure to break diapause in eggs with diapaused embryos for maintenance of the insect colony of B. mori ([…] et al., 2003). In a water-control, eggs with diapaused embryos were dipped in distilled water only, and in a blank-control, eggs with diapaused were not treated. […] The numbers of eggs with diapaused embryos per treatment (n) are given with the results.

[3] = test system: Vinh Chau Artemia cysts (ARC VC 1742); assay: Post-diapause development of Vinh Chau strain encysted Artemia embryos with NO donor
Experimental: Dry and processed embryos (cysts) from a strain of Artemia obtained in 2009 in the Soc Trang Province in the Mekong Delta (09° 19′48″ N-105° 58′11″ E) (Artemia Reference Center (ARC) code number VC 1742), were stored in the dark at 4° C. in tin cans, that were not resealed after the first opening. For the experiment, the cysts were grown at 26-28° C. with constant illumination in 25 ml of sea water under varying experimental conditions as detailed below.
(§4) To quantify nauplii (larvae) emergence and hatching (FIG. 1) which served as measures of cyst development, 6 samples of 250 μl were taken from each 50 ml tube after 10, 12, 14, 16, 18, 20, 22 and 24 h post incubation. Subsequently the obtained samples were mixed individually with 250 μl of sea water and 2 drops of Lugol's solution (Van Stappen, G, 1996) prior to counting nauplii (N) and umbrella (U) with the aid of a stereomicroscope.
as §2, §3

[4] = test system: Maloye Yarovoye Artemia cysts (ARC MY 1732); assay: Post-diapause development of Maloye Yarovoye strain encysted Artemia embryos with NO donor
Experimental: as §1, with “2008” for “winter 2005-2006”, “Maloye” for “Bolshoye”, “53° 04′00″ N-79° 10′00″” for “52° 51′64″ N-78° 37′32″”, “MY 1732),” for “BY 1706),”
as §4, with “24” for “10, 12, 14, 16, 18, 20, 22”, “48 h.” for “24 h post incubation.”
as §2, §3

[5] = test system: resting eggs of Brachionus; assay: Brachionus resting egg hatching
Experimental: Resting eggs of Brachionus were suspended in 20 ml seawater (25 g/l), supplemented with different concentrations of Sin-1 Chloride (1-60 μM) and put in a falcon tube. These tubes were put on a rotor at 28° C. under constant illumination. The effect on the hatching rate was measured after 48 hr and 72 hr of incubation, by counting emerged rotifers in function of the amount of NO donor added.

[6] = test system: diapaused adults of Leptinotarsa decemlineata; assay: Termination of adult diapause by NO gas
Experimental: All experiments were carried out on the Colorado potato beetle (potato beetle), Leptinotarsa decemlineata (Say) (Coleoptera: Chrysomelidae). Diapaused adult beetles were obtained by rearing larvae and pupae at 8 h light, 16 h dark, 25±2° C. and 70% relative humidity (Yi, et al., 2000). All life stages were fed potato (Solanum tuberosum L. ‘Bintje’) plants, that were refreshed daily. 15 days after adult emergence, the diapausing adults were placed in individual aluminum foil, 2.5-cm diameter ‘beakers’, containing fresh soil (Universal potting soil, Type 1, M. Snebbout n.v., Kaprijke, Belgium), and were stored at 4° C. in darkness.
Under red light, beetles were collected and put in Pyrex glass bottles of 100 mL, containing a layer of fresh soil. These bottles were wrapped in a double layer of aluminum foil to ensure complete darkness and sealed gastight by means of a rubber stop and a screw cap. The air was then removed by inserting a needle (in the rubber stop) connected to a vacuum pump. Using 50 ppmv NO gas (with N2 as carrier gas, purchased from Air Liquide), dilution series were prepared (with air as dilutor), and the desired final NO concentrations were injected in each bottle. A blank control, received ambient air only. Verification of the NO concentrations was done by sampling from a parallel bottle that received the same gas mixture as the treatment bottle. NO content was determined with a chemiluminescence detector (CLD 77 Amsp, Eco Physics). The treatments were all done at 4° C. in the dark and 30 minutes after insertion of the gas mixtures, the rubber stops were removed.
After the treatments, the beetles were collected in plastic containers (dimensions: 10×21×5 cm), containing fresh soil and potato leaves and kept at 25±3° C., 65% relative humidity and 8 h light (Exp. 1 and 2). In the last experiment (Exp 3), beetles were left at 4° C. in the dark for 6 hours before transfer to a 12° C. incubator, in the dark. The beetles that emerged were collected every day and the beetles' emergence per treatment (% of total) are given with the results.

[7] = test system: eggs with diapaused embryos of Bombyx mori; assay: Termination of embryonic diapause in eggs by NO gas; conditions: 5 days after treatment
Experimental: All experiments were carried out on silkmoth strain Bombyx mori J106 (Lepidoptera: Bombycidae). Larvae were maintained on an artificial diet (Yakuruto co.) under standard conditions of 25° C., 65% relative humidity and 16 h light (Tazima, Y., 1978; Swevers et al., 2003). Egg batches were collected from a continuous insect colony and used for the experiments.
In a first series, a batch of 70 eggs with diapaused embryos of B. mori were submerged for 5 minutes in 20% HCl (in distilled water) at 48° C., and then the eggs were washed with distilled water and dried to the air. […] The latter treatment is the normally used procedure to break diapause in eggs with diapaused embryos for maintenance of the insect colony of B. mori (Tazima, Y., 1978; Swevers et al., 2003). In a water-control, a batch of 70 eggs with diapaused embryos was submerged in distilled water for 5 minutes at 45° C., and in a blank-control, the same procedure was followed, but without addition of water.
In parallel, 4 batches of 70 eggs each, were put in Pyrex glass bottles of 100 mL, which were sealed gastight by means of a rubber stop and a screw cap. Then the air was removed from these bottles by inserting a needle (in the rubber stop) connected to a vacuum pump. Using 50 ppmv (Parts Per Million by Volume) NO gas (with N2 as carrier gas, purchased from Air Liquide) dilution series were prepared (with air as dilutor) to obtain final NO concentrations of 20, 200, 2000 and 20000 ppbv, in these bottles. Verification of the NO concentrations was done by sampling from a parallel bottle that received the same gas mixture as the treatment bottle and NO content was determined by using a chemiluminescence detector (CLD 77 Amsp, Eco Physics). 30 minutes after insertion of the gas mixtures, the rubber stops were removed. These treatments were all performed at room temperature.
Development of the neonate larvae (=hatching of first instar larvae from eggs) was scored at daily intervals. The numbers of eggs with diapaused embryos per treatment (n) are given with the results.

With `CC1(C)N([O])C(c2ccccc2)=[N+]([O-])C1(C)C` [PTIO, 2-phenyl-4,4,5,5,-tetramethylimidazoline-1-oxyl 3-oxide] the “effect of NO scavenger on cyst development promoted by NO donors” value ([1]; 300 μM PTIO with 0.5 μM Papa NONOate, 6.0 μM Spermine NONOate or 6.0 μM Sin-1 chloride, 48 hr) was “inhibited cyst development”.
For `Cl` [20% HCl], the “Number of developed neonates at day 6” value [2] was 10, the “Number of developed neonates at day 7” value [2] was 36 and the “Number of developed neonates at day 8” value [2] was 12. For the same compound, the “Number of developed neonates at day 14” value [2] was 0, the “Number of undeveloped eggs at day 14” value [2] was 14 and the “eggs developed into neonate larvae at 6-8 days after treatment (total)” value [2] was 81%. For the same compound, the “percentage of developed neonates at day 14” value [2] was “(0%)”.
With `CCCN(CCCN)N(O)N=O` [Papa NONOate, 3-(2-hydroxy-2-nitroso-1-propylhydrazino)-1-propanamine] the “hatching percentage (H %) versus untreated control” value ([3]; 0.5 μM, 16 and 18 h post-treatment) was “significantly increased”, the “hatching percentage (H %) versus non-treated controls” value ([3]; 1 and 4 μM, 16 hours and more) was “comparable to the non-treated controls” and the optimal dose ([3]; Vinh Chau cysts) was 0.5 µM. The “hatching percentage plus (H+%) versus non-treated controls” value ([3]; all treatments (0.5, 1, 4 μM) at 12, 18 and 20 hours) was “significantly increase”, the “hatching after 24 hours” value [1] was “inhibited hatching almost completely” and the “concentration at which NO donor was most effective on cyst development” value [1] was 0.63 µM. The “increase in number of nauplii compared to the control” value ([4]; 4 μM, 48 h) was ~5 fold, the “hatching percentage (H %)” value ([4]; 4 μM, 48 h, control around 10%) was 47% and the “optimal dose for inducing hatching” value ([4]; Maloye Yarovoye diapausing cysts) was 4 µM.
With `[NH-]c1c[n+](N2CCOCC2)no1` [Sin-1 Chloride, 3-morpholine syndnonimine] the “hatching after 24 hours” value [1] was “less dramatic, but obvious”, the “concentration at which NO donor was most effective on cyst development” value [1] was 4.0 µM and the “Percentage hatching of resting eggs” value ([5]; 1 μM, 48 hrs) was 12.34% (3.62). The “Percentage hatching of resting eggs” value ([5]; 1 μM, 72 hrs) was 33.11% (2.66), the “Percentage hatching of resting eggs” value ([5]; 6 μM, 48 hrs) was 18.93% (1.25) and the “Percentage hatching of resting eggs” value ([5]; 6 μM, 72 hrs) was 33.71% (0.66). The “Percentage hatching of resting eggs” value ([5]; 10 μM, 72 hrs) was 37.17% (2.88), the “Percentage hatching of resting eggs” value ([5]; 20 μM, 48 hrs) was 17.99% (3.18) and the “Percentage hatching of resting eggs” value ([5]; 20 μM, 72 hrs) was 32.38% (2.63). For the same compound, the “Percentage hatching of resting eggs” value ([5]; 60 μM, 48 hrs) was 14.98% (3.52) and the “Percentage hatching of resting eggs” value ([5]; 60 μM, 72 hrs) was 27.57% (1.00).
In the case of nitric oxide [NO gas], the “percentage of emerging adult beetles” value ([6]; 0.300 ppmv, after 4 days, in diapause for 27 days, blank control 14.3%) is reported as 42.9%, the “percentage of emerging adult beetles” value ([6]; 2.6 ppmv, 3 days after treatment, in diapause for 10 days) is reported as 20% and the “percentage of emerging adult beetles” value ([6]; 2.6 ppmv, day 6, in diapause for 10 days) is reported as 40%. The “percentage of emerging adult beetles” value ([6]; 6.1 ppmv, 3 days after treatment, in diapause for 10 days) was 20%, the “percentage of emerging adult beetles” value ([6]; 6.1 ppmv, day 6, in diapause for 10 days) was 20% and the “percentage of emerging adult beetles” value ([6]; 67.4 ppmv, after 4 days, in diapause for 10 days) was 20%. For the same compound, the eggs emerged ([7]; 0.02-20 ppmv NO, controls 0%) was 27.1-37.1%, the “Percentage of developing eggs” value ([7]; 0.02 ppmv NO) was 37.1% and the “Percentage of developing eggs” value ([7]; 0.20 ppmv NO) was 35.7%. For the same compound, the “Percentage of developing eggs” value ([7]; 2.00 ppmv NO) was 31.4% and the “Percentage of developing eggs” value ([7]; 20.0 ppmv NO) was 27.1%.

From US20120064180A1, “USE OF NO AND NO DONORS FOR TERMINATING DORMANCY IN INVERTEBRATES” (UNIVERSITEIT GENT, priority 2009, published 2012)
